For orientation: Ki means a dissociation constant, usually derived from enzyme kinetics or from competition with a known ligand. Low values mean higher affinity, high ones lower affinity.

Square brackets hold non-standard residues; d marks the D form. Peptide text beside a SMILES is read from it. ξ: configuration not given here. Ile(3ξ) = CCC(C)[C@H](N)C(=O)O

The test deals with T1, VIP peptides (Rattus norvegicus, UniProt P01283).
T1 sequence (P01283 whole entry): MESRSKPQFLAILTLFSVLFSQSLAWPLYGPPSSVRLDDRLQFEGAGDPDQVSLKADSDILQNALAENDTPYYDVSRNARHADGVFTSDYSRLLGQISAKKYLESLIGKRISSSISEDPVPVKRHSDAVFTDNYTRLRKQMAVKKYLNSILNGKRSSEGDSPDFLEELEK
Regarding `CC[C@H](C)[C@H](NC(=O)CNC(=O)[C@H](CC(=O)O)NC(=O)[C@H](CO)NC(=O)[C@@H](N)Cc1ccccc1)C(=O)N[C@@H](Cc1ccccc1)C(=O)N[C@H](C(=O)N[C@@H](CC(=O)O)C(=O)N[C@@H](CO)C(=O)N[C@@H](Cc1ccc(O)cc1)C(=O)N[C@@H](CO)C(=O)N[C@@H](CCCN=C(N)N)C(=O)N[C@@H](Cc1ccc(O)cc1)C(=O)N[C@@H](CCCN=C(N)N)C(=O)N[C@@H](CCCCN)C(=O)N[C@@H](CCC(N)=O)C(=O)N[C@@H](CCSC)C(=O)N[C@@H](C)C(=O)N[C@H](C(=O)N[C@@H](CCCCN)C(=O)N[C@@H](CCCCN)C(=O)N[C@@H](Cc1ccc(O)cc1)C(=O)N[C@@H](CC(C)C)C(=O)N[C@@H](C)C(=O)N[C@@H](C)C(=O)N[C@H](C(=O)N[C@@H](CC(C)C)C(N)=O)C(C)C)C(C)C)[C@@H](C)O` [[Phe1]PACAP(1-27)], the Ki was determined as 300 nM.
With `CC[C@H](C)[C@H](NC(=O)[C@H](CO)NC(=O)[C@H](CC(N)=O)NC(=O)[C@H](CC(C)C)NC(=O)[C@H](Cc1ccc(O)cc1)NC(=O)[C@H](CCCCN)NC(=O)[C@H](CCCCN)NC(=O)[C@@H](NC(=O)[C@H](C)NC(=O)[C@H](CCSC)NC(=O)[C@H](CCC(N)=O)NC(=O)[C@H](CCCCN)NC(=O)[C@H](CCCN=C(N)N)NC(=O)[C@H](CC(C)C)NC(=O)[C@H](CCCN=C(N)N)NC(=O)[C@@H](NC(=O)[C@H](Cc1ccc(O)cc1)NC(=O)[C@H](CC(N)=O)NC(=O)[C@H](CC(=O)O)NC(=O)[C@@H](NC(=O)[C@H](Cc1ccccc1)NC(=O)[C@@H](NC(=O)[C@H](C)NC(=O)[C@@H](N)CC(=O)O)C(C)C)[C@@H](C)O)[C@@H](C)O)C(C)C)C(=O)N[C@@H](CC(C)C)C(=O)N[C@@H](CC(N)=O)C(N)=O` [VIP(3-28)] (H-DAVFTDNYTRLRKQMAVKKYLNSILN-NH2) the figure was 3000 nM.
The value for `CCC(C)[C@H](NC(=O)CNC(=O)[C@@H](N)CC(=O)O)C(=O)N[C@@H](Cc1ccccc1)C(=O)N[C@H](C(=O)N[C@@H](CC(=O)O)C(=O)N[C@@H](CO)C(=O)N[C@@H](Cc1ccc(O)cc1)C(=O)N[C@@H](CO)C(=O)N[C@@H](CCCN=C(N)N)C(=O)N[C@@H](Cc1ccc(O)cc1)C(=O)N[C@@H](CCCN=C(N)N)C(=O)N[C@@H](CCCCN)C(=O)N[C@@H](CCC(N)=O)C(=O)N[C@@H](CCSC)C(=O)N[C@@H](C)C(=O)N[C@H](C(=O)N[C@@H](CCCCN)C(=O)N[C@@H](CCCCN)C(=O)N[C@@H](Cc1ccc(O)cc1)C(=O)N[C@@H](CC(C)C)C(=O)N[C@@H](C)C(=O)N[C@@H](C)C(=O)N[C@H](C(=O)N[C@@H](CC(C)C)C(N)=O)C(C)C)C(C)C)[C@@H](C)O` (stereo partly specified) [PACAP(3-27)] (H-DG[Ile(3ξ)]FTDSYSRYRKQMAVKKYLAAVL-NH2) was 2000 nM; that for `CC[C@H](C)[C@H](NC(=O)[C@H](CO)NC(=O)[C@H](CC(N)=O)NC(=O)[C@H](CC(C)C)NC(=O)[C@H](Cc1ccc(O)cc1)NC(=O)[C@H](CCCCN)NC(=O)[C@H](CCCCN)NC(=O)[C@@H](NC(=O)[C@H](C)NC(=O)[C@H](CCSC)NC(=O)[C@H](CCC(N)=O)NC(=O)[C@H](CCCCN)NC(=O)[C@H](CCCN=C(N)N)NC(=O)[C@H](CC(C)C)NC(=O)[C@H](CCCN=C(N)N)NC(=O)[C@@H](NC(=O)[C@H](Cc1ccc(O)cc1)NC(=O)[C@H](CC(N)=O)NC(=O)[C@H](CC(=O)O)NC(=O)[C@@H](NC(=O)[C@H](Cc1ccccc1)NC(=O)[C@@H](NC(=O)[C@H](C)NC(=O)[C@H](CC(=O)O)NC(=O)[C@H](CO)NC(=O)[C@H](Cc1cnc[nH]1)NC(C)=O)C(C)C)[C@@H](C)O)[C@@H](C)O)C(C)C)C(=O)N[C@@H](CC(C)C)C(=O)N[C@@H](CC(N)=O)C(N)=O` [Acetyl-His1-VIP] was 15 nM.
With `[C][C][C]([C])[C@H]([N]C(=O)[C][N]C(=O)[C@H]([C][C]C([O])=O)[N]C(=O)[C@@H]([N])[C][O])C(=O)[N][C@@H]([C]c1ccccc1)C(=O)[N][C@H](C(=O)[N][C@@H]([C]C([O])=O)C(=O)[N][C@@H]([C][O])C(=O)[N][C@@H]([C]c1ccc([O])cc1)C(=O)[N][C@@H]([C][O])C(=O)[N][C@@H]([C][C][C]N=C([N])[N])C(=O)[N][C@@H]([C]c1ccc([O])cc1)C(=O)[N][C@@H]([C][C][C]N=C([N])[N])C(=O)[N][C@@H]([C][C][C][C][N])C(=O)[N][C@@H]([C][C]C([N])=O)C(=O)[N][C@@H]([C][C]S[C])C(=O)[N][C@@H]([C])C(=O)[N][C@@H]([C]([C])[C])C(=O)[N][C@@H]([C][C][C][C][N])C(=O)[N][C@@H]([C][C][C][C][N])C(=O)[N][C@@H]([C]c1ccc([O])cc1)C(=O)[N][C@@H]([C][C]([C])[C])C(=O)[N][C@@H]([C])C(=O)[N][C@@H]([C])C(=O)[N][C@@H]([C]([C])[C])C(=O)[N][C@@H]([C][C]([C])[C])C([N])=O)[C@@H]([C])[O]` [PACAP(2-27)] the figure was 30 nM; with `CC[C@H](C)[C@H](NC(=O)[C@H](CO)NC(=O)[C@H](CC(N)=O)NC(=O)[C@H](CC(C)C)NC(=O)[C@H](Cc1ccc(O)cc1)NC(=O)[C@H](CCCCN)NC(=O)[C@H](CCCCN)NC(=O)[C@@H](NC(=O)[C@H](C)NC(=O)[C@H](CCSC)NC(=O)[C@H](CCC(N)=O)NC(=O)[C@H](CCCCN)NC(=O)[C@H](CCCN=C(N)N)NC(=O)[C@H](CC(C)C)NC(=O)[C@H](CCCN=C(N)N)NC(=O)[C@@H](NC(=O)[C@H](Cc1ccc(O)cc1)NC(=O)[C@H](CC(N)=O)NC(=O)[C@H](CC(=O)O)NC(=O)[C@@H](NC(=O)[C@H](Cc1ccccc1)NC(=O)[C@@H](NC(=O)[C@H](C)NC(=O)[C@H](CC(=O)O)NC(=O)[C@H](CO)NC(=O)[C@H](N)Cc1cnc[nH]1)C(C)C)[C@@H](C)O)[C@@H](C)O)C(C)C)C(=O)N[C@@H](CC(C)C)C(=O)N[C@@H](CC(N)=O)C(N)=O` [VIP [D-His1]], 200 nM.

The values are drawn from BindingDB's records for doi:10.1016/0167-0115(94)90537-1 (Universit&Eacute, 1994).
